Reference: patent US20220016063A1, “COMPOSITIONS THAT ENHANCE IRON ABSORPTION AND METHODS OF USE THEREOF” (UNIVERSITY OF FLORDIA RESEARCH FOUNDATION, INCORPORATED, priority 2018, published 2022)

Legend:
[1] = system: Swiss-Webster mice on an Fe-deficient diet; assay: Iron depletion-repletion study (blood hemoglobin); assay type: in vivo; conditions: males, 6.3 mM FeSO4 in control formulation, daily 200 μL gavage, 14 days
Protocol: To establish the amount of iron needed to steadily replete a mouse, the concentration was determined theoretically to be 3.15 mM in a 200 μL gavage dose, based on daily food intake and iron requirement of a rodent (35 mg/kg Fe). Two additional concentrations were included in this study: 1.575 mM and 6.3 mM, which are half and double the theoretical concentration, respectively. A control group was given 0 mM Fe gavage on chow diet to obtain normal Hb values. The Fe was dissolved in control formulation (Table 3). Three-week-old male and female Swiss-Webster mice were placed on an Fe-deficient diet in wire-overhang cages for two weeks. After two weeks baseline hemoglobin (Hb) was measured. Daily gavage began in the evening for 14 days. An additional trial included FeSO4 and ferrous fumarate at 6.3 mM and 12.6 mM per iron source, along with a control group with 0 mM Fe gavage on control diet (50 ppm Fe).
Three-week-old male and female Swiss-Webster mice were placed on an Fe-deficient diet for two weeks. After two weeks baseline hemoglobin (Hb) was measured and mice were randomized into groups so that average starting Hb values are similar. They were gavaged every evening after a 1.5 hour fast (just before the “active” phase) with a 200 μL volume containing 6.3 mM FeSO4 in control or 4 AA formulations. […] Hemoglobin was measured every three days to track repletion. […]

[2] = system: duodenal epithelial organ cultures; assay: Ussing chamber 59Fe flux studies; set-up: species or system Swiss-Webster mice; conditions: compared to the other single AAs
Protocol: Ussing chamber technology was utilized to measure Fe flux in the presence of AA formulations. The Ussing chamber was balanced for at least 30 minutes prior to mounting duodenal mouse tissues. Tissues were bathed bilaterally in 10 mL of control or AA-containing buffers, containing 1.5 mM FeSO4.7H2O (“cold” Fe), and were bubbled with a 95% O2 and 5% CO2 gas mixture. Experiments were performed under conditions in which the voltage was clamped to zero, so that there was no net passive diffusion of ions and no driving force for paracellular flux. Duodenal epithelial organ cultures were mounted and equilibrated for approximately 10 minutes and were paired for mucosal-to-serosal and serosal-to-mucosal flux based on similar conductance values. Blank measurements (500 μL) were collected from the “cold” (non-radioactive) side. 15 μCi of ^59Fe (PerkinElmer, catalog #NEZ037500UC) neutralized with N-methyl-D-glucamine (NMDG) was added to each chamber, on either the mucosal or serosal side, depending upon tissue pairing. At 15-minute intervals, 500 μL samples were collected from the “cold” side for 60 minutes, and 500 μL buffer were added back to maintain a fixed volume. […] Radioactivity in the samples was measured using a PerkinElmer gamma counter, and net Fe flux was calculated as Jnet=Jms−Jsm, where Jms is mucosal to serosal flux (absorption) and Jsm is serosal to mucosal flux (secretion). […]

[3] = system: DMT1; assay: Ligated duodenal loop studies, DMT1 Western blot of BBMV; set-up: species or system Swiss-Webster mice; conditions: single AA formulation pH 6.5 in duodenal loop, 45 min 37 °C; relative to control (expression set to 1)
Protocol: Blind loop studies were conducted on 8-10-week-old male Swiss-Webster mice, as they are a commonly used outbred strain. Males were selected for initial screening purposes, but experiments will be repeated in female mice. Mice were sacrificed and duodenal segments (approximately […]) were isolated and flushed with Ringer's buffer. […] After incubation, the luminal liquid was released. […] A standard protocol for isolating BBM protein was performed for Western blot analysis (described below).
Isolation of Brush-Border Membrane Vesicles (BBMV): A light scrape of the duodenal mucosal was placed in 9.9 mL ice-cold lysis buffer with 0.1 mL Halt Protease Inhibitor Cocktail, EDTA-free 100×. Samples were homogenized on ice using an IKA T25 Ultra Turrax device for 2 min. Following homogenization, 500 μL 1 M MgCl2 was added and the sample was rotated at 4° C. for 10 minutes. Samples were then centrifuged at 10,000 rpm for 25 min using a JA-12 rotor in a Beckman-Coulter ultracentrifuge. The supernatant was transferred to new round-bottom tubes and centrifuged again at 19,000 rpm for 40 minutes using a JA-17 rotor. The remaining pellet after the second centrifugation step contained the BBMVs. The pellet was dissolved in 50 μL Ringer's buffer with protease inhibitor at a final concentration of 1×.
Sodium Dodecyl Sulfate-Polyacrylamide Gel Electrophoresis (SDS-PAGE): Protein samples, each containing 30 μg protein, were mixed with 4× Laemmli buffer and 1 M dithiolthreitol (ratio of buffer to DTT was 20:1) and incubated at 37° C. for 30 minutes. 30 μg of protein was then loaded into each lane of 8% polyacrylamide gels. SDS-PAGE was run at 90 V for 30 minutes and increased to 120 V for the duration of the electrophoresis.
Western Blot: Proteins in gels were transferred to PVDF membranes at 60 V for two hours. […] Membranes were then incubated with DMT1 primary antibody (courtesy of François Canonne-Hergaux, French Institute of Health and Medical Research, Bordeaux, France) at a 1:2000 dilution in Odyssey blocking buffer at 4° C. for at least 16 hours. Blots were rinsed with TBST for 15 minutes under fast agitation for a total of three washes. […] Blots were again rinsed with TBST for 15 minutes under fast agitation for a total of three washes. Blots were subsequently imaged and protein band signals were quantified with a Licor Odyssey CLx immunofluorescent instrument. Protein band intensities were then normalized to total protein of each lane stained with Coomassie (Gel Analyzer software) and all data was normalized to respective control lanes on the same blot.

SMILES | relative DMT1 protein expression on the BBM [3] | other results
O.O.O.O.O.O.O.O=S(=O)([O-])[O-].[Fe+2] [FeSO4] | – | blood hemoglobin during repletion [1]: steady increase
NC(=O)CC[C@H](N)C(=O)O [glutamine] | – | net Fe flux with individual AAs from the 4 AA formulation [2]: lowest flux
NCCCC[C@H](N)C(=O)O [lysine] | lowest relative DMT1 protein expression | –
N[C@@H](CO)C(=O)O [serine] | lowest relative DMT1 protein expression | –
C[C@@H](O)[C@H](N)C(=O)O [threonine] | lowest relative DMT1 protein expression | –
N[C@@H](Cc1ccc(O)cc1)C(=O)O [tyrosine] | lowest relative DMT1 protein expression | –
CC(C)[C@H](N)C(=O)O [valine] | lowest relative DMT1 protein expression | –
